Experimental data published in ChEMBL document CHEMBL5154747, “Discovery of new carbonic anhydrase IX inhibitors as anticancer agents by toning the hydrophobic and hydrophilic rims of the active site to encounter the dual-tail approach” (Eur J Med Chem, 2022).

Legend:
Type in all cases: functional
Conditions in all cases: read-out: GI
[1] = tested on: HL-60(TB); test: Anticancer activity against human HL-60(TB) cells assessed as cell growth inhibition at 10 uM incubated for 48 hrs by SRB assay relative to control
[2] = tested on: K562; test: Anticancer activity against human K562 cells assessed as cell growth inhibition at 10 uM incubated for 48 hrs by SRB assay relative to control
[3] = tested on: MOLT-4; test: Anticancer activity against human MOLT-4 cells assessed as cell growth inhibition at 10 uM incubated for 48 hrs by SRB assay relative to control
[4] = tested on: RPMI-8226; test: Anticancer activity against human RPMI-8226 cells assessed as cell growth inhibition at 10 uM incubated for 48 hrs by SRB assay relative to control
[5] = tested on: A549; test: Anticancer activity against human A549 cells assessed as cell growth inhibition at 10 uM incubated for 48 hrs by SRB assay relative to control
[6] = tested on: EKVX; test: Anticancer activity against human EKVX cells assessed as cell growth inhibition at 10 uM incubated for 48 hrs by SRB assay relative to control
[7] = tested on: HOP-62; test: Anticancer activity against human HOP-62 cells assessed as cell growth inhibition at 10 uM incubated for 48 hrs by SRB assay relative to control
[8] = tested on: HOP-92; test: Anticancer activity against human HOP-92 cells assessed as cell growth inhibition at 10 uM incubated for 48 hrs by SRB assay relative to control
[9] = tested on: NCI-H23; test: Anticancer activity against human NCI-H23 cells assessed as cell growth inhibition at 10 uM incubated for 48 hrs by SRB assay relative to control
[10] = tested on: NCI-H322M; test: Anticancer activity against human NCI-H322M cells assessed as cell growth inhibition at 10 uM incubated for 48 hrs by SRB assay relative to control
[11] = tested on: NCI-H522; test: Anticancer activity against human NCI-H522 cells assessed as cell growth inhibition at 10 uM incubated for 48 hrs by SRB assay relative to control
[12] = tested on: COLO 205; test: Anticancer activity against human COLO 205 cells assessed as cell growth inhibition at 10 uM incubated for 48 hrs by SRB assay relative to control
[13] = tested on: KM12; test: Anticancer activity against human KM12 cells assessed as cell growth inhibition at 10 uM incubated for 48 hrs by SRB assay relative to control
[14] = tested on: SW-620; test: Anticancer activity against human SW-620 cells assessed as cell growth inhibition at 10 uM incubated for 48 hrs by SRB assay relative to control
[15] = tested on: SF-268; test: Anticancer activity against human SF-268 cells assessed as cell growth inhibition at 10 uM incubated for 48 hrs by SRB assay relative to control
[16] = tested on: SF-295; test: Anticancer activity against human SF-295 cells assessed as cell growth inhibition at 10 uM incubated for 48 hrs by SRB assay relative to control
[17] = tested on: SNB-19; test: Anticancer activity against human SNB-19 cells assessed as cell growth inhibition at 10 uM incubated for 48 hrs by SRB assay relative to control
[18] = tested on: SNB-75; test: Anticancer activity against human SNB-75 cells assessed as cell growth inhibition at 10 uM incubated for 48 hrs by SRB assay relative to control
[19] = tested on: Malme-3M; test: Anticancer activity against human Malme-3M cells assessed as cell growth inhibition at 10 uM incubated for 48 hrs by SRB assay relative to control
[20] = tested on: MDA-MB-435; test: Anticancer activity against human MDA-MB-435 cells assessed as cell growth inhibition at 10 uM incubated for 48 hrs by SRB assay relative to control
[21] = tested on: SK-MEL-2; test: Anticancer activity against human SK-MEL-2 cells assessed as cell growth inhibition at 10 uM incubated for 48 hrs by SRB assay relative to control
[22] = tested on: SK-MEL-28; test: Anticancer activity against human SK-MEL-28 cells assessed as cell growth inhibition at 10 uM incubated for 48 hrs by SRB assay relative to control
[23] = tested on: SK-MEL-5; test: Anticancer activity against human SK-MEL-5 cells assessed as cell growth inhibition at 10 uM incubated for 48 hrs by SRB assay relative to control
[24] = tested on: UACC-257; test: Anticancer activity against human UACC-257 cells assessed as cell growth inhibition at 10 uM incubated for 48 hrs by SRB assay relative to control
[25] = tested on: IGROV-1; test: Anticancer activity against human IGROV-1 cells assessed as cell growth inhibition at 10 uM incubated for 48 hrs by SRB assay relative to control
[26] = tested on: OVCAR-3; test: Anticancer activity against human OVCAR-3 cells assessed as cell growth inhibition at 10 uM incubated for 48 hrs by SRB assay relative to control
[27] = tested on: OVCAR-8; test: Anticancer activity against human OVCAR-8 cells assessed as cell growth inhibition at 10 uM incubated for 48 hrs by SRB assay relative to control
[28] = tested on: NCI/ADR-RES; test: Anticancer activity against human NCI/ADR-RES cells assessed as cell growth inhibition at 10 uM incubated for 48 hrs by SRB assay relative to control
[29] = tested on: SK-OV-3; test: Anticancer activity against human SK-OV-3 cells assessed as cell growth inhibition at 10 uM incubated for 48 hrs by SRB assay relative to control
[30] = tested on: 786-0; test: Anticancer activity against human 786-0 cells assessed as cell growth inhibition at 10 uM incubated for 48 hrs by SRB assay relative to control
[31] = tested on: A498; test: Anticancer activity against human A498 cells assessed as cell growth inhibition at 10 uM incubated for 48 hrs by SRB assay relative to control
[32] = tested on: CAKI-1; test: Anticancer activity against human CAKI-1 cells assessed as cell growth inhibition at 10 uM incubated for 48 hrs by SRB assay relative to control
[33] = tested on: RXF 393; test: Anticancer activity against human RXF 393 cells assessed as cell growth inhibition at 10 uM incubated for 48 hrs by SRB assay relative to control
[34] = tested on: MDA-MB-231; test: Anticancer activity against human MDA-MB-231 cells assessed as cell growth inhibition at 10 uM incubated for 48 hrs by SRB assay relative to control
[35] = tested on: Hs-578T; test: Anticancer activity against human Hs-578T cells assessed as cell growth inhibition at 10 uM incubated for 48 hrs by SRB assay relative to control
[36] = tested on: BT-549; test: Anticancer activity against human BT-549 cells assessed as cell growth inhibition at 10 uM incubated for 48 hrs by SRB assay relative to control
[37] = tested on: T47D; test: Anticancer activity against human T47D cells assessed as cell growth inhibition at 10 uM incubated for 48 hrs by SRB assay relative to control
[38] = tested on: MDA-MB-468; test: Anticancer activity against human MDA-MB-468 cells assessed as cell growth inhibition at 10 uM incubated for 48 hrs by SRB assay relative to control
[39] = tested on: OVCAR-4; test: Anticancer activity against human OVCAR-4 cells assessed as cell growth inhibition at 10 uM incubated for 48 hrs by SRB assay relative to control

SMILES	inhibition of growth at 10 µM [1]	inhibition of growth at 10 µM [2]	inhibition of growth at 10 µM [3]	inhibition of growth at 10 µM [4]	inhibition of growth at 10 µM [5]	inhibition of growth at 10 µM [6]	inhibition of growth at 10 µM [7]	inhibition of growth at 10 µM [8]	inhibition of growth at 10 µM [9]	inhibition of growth at 10 µM [10]	inhibition of growth at 10 µM [11]	inhibition of growth at 10 µM [12]	inhibition of growth at 10 µM [13]	inhibition of growth at 10 µM [14]	inhibition of growth at 10 µM [15]	inhibition of growth at 10 µM [16]	inhibition of growth at 10 µM [17]	inhibition of growth at 10 µM [18]	inhibition of growth at 10 µM [19]	inhibition of growth at 10 µM [20]	other results
NNc1nc(Nc2ccccc2)nc(Nc2ccc(S(N)(=O)=O)cc2)n1	< 10%	< 10%	81%	< 10%	< 10%	< 10%	< 10%	< 10%	< 10%	< 10%	< 10%	< 10%	< 10%	< 10%	< 10%	< 10%	< 10%	< 10%	< 10%	< 10%	inhibition of growth at 10 µM [21]: < 10%; inhibition of growth at 10 µM [22]: < 10%; inhibition of growth at 10 µM [23]: < 10%; inhibition of growth at 10 µM [24]: < 10%; inhibition of growth at 10 µM [25]: < 10%; inhibition of growth at 10 µM [26]: < 10%; inhibition of growth at 10 µM [27]: < 10%; inhibition of growth at 10 µM [28]: < 10%; inhibition of growth at 10 µM [29]: < 10%; inhibition of growth at 10 µM [30]: < 10%; inhibition of growth at 10 µM [31]: < 10%; inhibition of growth at 10 µM [32]: < 10%; inhibition of growth at 10 µM [33]: < 10%; inhibition of growth at 10 µM [34]: < 10%; inhibition of growth at 10 µM [35]: < 10%; inhibition of growth at 10 µM [36]: < 10%; inhibition of growth at 10 µM [37]: < 10%; inhibition of growth at 10 µM [38]: < 10%; inhibition of growth at 10 µM [39]: < 10%
NS(=O)(=O)c1ccc(Nc2nc(N/N=C/c3cccs3)nc(Nc3ccccc3)n2)cc1	29%	39%	42%	47%	11%	24%	15%	44%	19%	23%	20%	18%	44%	10%	16%	23%	< 10%	16%	20%	25%	inhibition of growth at 10 µM [21]: 24%; inhibition of growth at 10 µM [22]: 20%; inhibition of growth at 10 µM [23]: 26%; inhibition of growth at 10 µM [24]: < 10%; inhibition of growth at 10 µM [25]: 65%; inhibition of growth at 10 µM [26]: 35%; inhibition of growth at 10 µM [27]: 29%; inhibition of growth at 10 µM [28]: < 10%; inhibition of growth at 10 µM [29]: < 10%; inhibition of growth at 10 µM [30]: 13%; inhibition of growth at 10 µM [31]: 43%; inhibition of growth at 10 µM [32]: 44%; inhibition of growth at 10 µM [33]: 52%; inhibition of growth at 10 µM [34]: 53%; inhibition of growth at 10 µM [35]: 34%; inhibition of growth at 10 µM [36]: 22%; inhibition of growth at 10 µM [37]: 38%; inhibition of growth at 10 µM [38]: 50%; inhibition of growth at 10 µM [39]: 29%
